Measured values as given in patent US12234223B2, “Phthalazinone compound, and preparation method therefor and medical use thereof” (SHANGHAI JEMINCARE PHARMACEUTICALS CO., LTD, priority 2020, dated 2025).

Columns and labels:
Androgen receptor = molecular target: T1, Androgen receptor (Homo sapiens, UniProt P10275); experiment: Androgen receptor In-Cell-Western assay (AR degradation in VCaP cells); type: cell-based; settings: 24 hours treatment; for DC50: concentration for half the maximum degradation degree of AR in VCaP cells; for Dmax: maximum degradation degree of AR in VCaP cells
T1 construct: Dmax: a maximum degradation degree of AR in VCaP cells; endogenous in cells; host or cells: VCaP cells
T1 sequence (P10275 1-920): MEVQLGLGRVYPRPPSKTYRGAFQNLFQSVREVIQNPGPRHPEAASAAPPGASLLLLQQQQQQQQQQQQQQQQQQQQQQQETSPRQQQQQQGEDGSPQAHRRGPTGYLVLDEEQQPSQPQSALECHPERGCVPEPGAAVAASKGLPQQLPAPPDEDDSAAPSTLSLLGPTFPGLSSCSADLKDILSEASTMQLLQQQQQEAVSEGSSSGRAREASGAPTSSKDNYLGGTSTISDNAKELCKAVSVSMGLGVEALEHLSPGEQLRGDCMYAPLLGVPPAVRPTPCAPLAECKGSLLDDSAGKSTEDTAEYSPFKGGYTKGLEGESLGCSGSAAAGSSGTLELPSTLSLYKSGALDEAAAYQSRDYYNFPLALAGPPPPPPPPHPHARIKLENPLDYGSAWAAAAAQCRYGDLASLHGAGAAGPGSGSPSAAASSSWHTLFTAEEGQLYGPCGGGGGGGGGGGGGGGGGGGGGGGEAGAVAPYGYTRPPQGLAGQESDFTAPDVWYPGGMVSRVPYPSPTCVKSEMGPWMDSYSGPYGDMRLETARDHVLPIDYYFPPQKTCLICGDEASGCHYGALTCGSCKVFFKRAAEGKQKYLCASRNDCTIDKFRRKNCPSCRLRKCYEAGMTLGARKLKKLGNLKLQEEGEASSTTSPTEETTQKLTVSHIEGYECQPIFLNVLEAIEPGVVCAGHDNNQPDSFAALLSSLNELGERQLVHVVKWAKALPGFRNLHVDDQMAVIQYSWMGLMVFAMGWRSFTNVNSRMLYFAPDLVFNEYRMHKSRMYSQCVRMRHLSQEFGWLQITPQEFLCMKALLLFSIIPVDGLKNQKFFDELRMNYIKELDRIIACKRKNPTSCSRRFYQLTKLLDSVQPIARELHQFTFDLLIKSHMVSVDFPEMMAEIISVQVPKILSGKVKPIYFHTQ
Method: This assay evaluated compound performance in VCap cells. An intracellular androgen receptor was assayed by In-Cell-Western according to the assay procedure described below.
In a 96-well cell culture plate (Corning 3599) pretreated by poly-D-Lysin, Vcap cells were seeded to a Vcap cell assay medium [phenol red containing DMEM (Gibco Cat. No.: 11995065); fetal bovine serum FBS (Gibco Cat. No.: 10099141C)] at a volume of 100 μL/well and a cell density of 50,000 cells/well. Cells were cultured for at least two days. • 1. First, cells were treated with a compound. The compound was subjected to a gradient dilution by using DMSO and a cell culture medium, so that DMSO contained in the cell culture plate was diluted to 0.5%: a polypropylene plate was used according to the following protocol: • (1) (i) A 200× stock solution plate was prepared in DMSO; (ii) a 10 mM stock solution was diluted at 1:4 (10 μL stock solution+40 μL DMSO=2000 uM) with DMSO to enter row 2; (iii) a 1:4 (10 μL protac+40 μL DMSO) gradient dilution was performed from row 2 to row 9, row 1 was reserved for a 2000 uM reference compound and row 10 was reserved for DMSO. (iv) There were 8 concentrations (the final concentrations on the 200× plate was 2000 uM, 400 uM, 80 uM, etc.) in total. (2) (i) A 3× stock solution was prepared in the medium; (ii) 3 μL of the 200× stock solution was transferred to 197 μL of the medium (by a 12-channel pipette, from row 1 to row 10), i.e. a 3× stock solution plate. (iii) Uniform mixing was performed for the stock solution plate. (3) (i) The medium of Vcap cells was replaced with a fresh medium, with the medium volume of 100 μL. (ii) The uniformly-mixed 3× stock solution was transferred to the cell culture plate (by the 12-channel pipette, 50 μL of the stock solution was transferred from row 1 to row 10). (iii) The cells were cultured for 24 hours. • 2. The expression level of the intracellular androgen receptor after compound treatment was detected, and assay was performed according to the following method. • (1) (i) An equal volume of 8% paraformaldehyde was added to the cell culture plate for cell fixation. A fixative solution in the cell plate was discarded, and the cell plate was washed three times with PBS. (ii) A Triton solution was prepared (the stock solution was diluted at 1:1000). The solution in the cell plate was discarded, and a volume of 200 μL of a Triton diluent was added to each well. (iii) A 2× blocking solution was prepared (a 10× blocking stock solution was diluted at 1:4). The solution in the cell plate was discarded, and a volume of 100 μL of the 2× blocking solution was added to each well. (iv) A primary antibody solution (Androgen receptor Rabbit mAb, Cell Signaling Technology Cat. No.: 5153; 1:1000 dilution) was prepared. The solution in the cell plate was discarded, a volume of 100 μL of a primary antibody diluent was added to each well, and incubation was performed at 4 degrees overnight. (v) The primary antibody solution was discarded, and the cell plate was washed with 1× Wash buffer (Wash buffer in the present application means a washing buffer solution). (vi) A secondary antibody solution (Goat anti Rabbit IgG (H+L) Secondary Antibody, HRP, Thermo Cat. No.: 31460; 1:5000 dilution) was prepared, and a volume of 100 μL of a secondary antibody diluent was added to each well for incubation. (vii) The secondary antibody solution in the cell plate was discarded, and the cell plate was washed with 1× Wash buffer. (viii) A TMB chromogenic solution (BD Cat. No.: 550534) was prepared, and a volume of 100 μL of the chromogenic solution was added to each well. (ix) A volume of 50 μL of a stop solution (BD Cat. No.: 550534) was added to each well. (x) Absorption values at OD 450 nm and 570 nm were read by EnVision. (2) (i) Normalized analysis was performed for the number of cells in each well. The solution in the cell plate was discarded, and the cell plate was washed three times with wash buffer. […]

VCaP cells = experiment: Inhibitory effect on VCaP cell proliferation (Cell Titer Glo); type: cell-based; settings: Homo sapiens, 144 h; for IC50: VCaP cells, 5% FBS and 0.1 nM R1881, 6 days; for Emax: maximum degree of VCaP cell proliferation inhibition, 6 days
Method: A tumor cell line Vcap (ATCC Cat. No. CRL-2876) was respectively cultured with DMEM (Gibco Cat. No. 11965-092) medium containing 10% FBS (Gibco Cat. No. 10099-141C). During testing, Vcap cells were replaced with a DMEM culture fluid containing 5% FBS and 0.1 nM R1881 (Sigma Cat. No. R0908). The assay method was as follows:
Vcap cells were seeded to a 384-well plate (Perkin Elmer Cat. No. 6007460) at a cell density of 1200 cells/well and a volume of 20 μL/well; after the cells were incubated overnight in a carbon dioxide incubator (Thermo), the prepared compound solutions with different concentrations were added at a volume of 5 μL/well; meanwhile, a corresponding solvent was provided as a control; after the cells were continuously incubated in the incubator for 6 days, the cell plate and the contents thereof were equilibrated to room temperature; 25 μL of a Cell Titer Glor (Promega Cat. No. G7573) reagent was added to each well; after vibration and uniform mixing, incubation in the dark was performed for 10-30 minutes, and a signal value was detected with Envision microplate reader (PerkinElmer).
A percentage inhibition rate of compound-treated wells was calculated through solvent control wells on the plate, GraphPad prism was used to fit the percentage inhibition rate data corresponding to different concentrations, and IC50 value was calculated by a 4-parameter nonlinear logistic formula.
Emax: a maximum degree of VCaP cell proliferation inhibition. IC50: a compound concentration required to achieve half the maximum degree of VCaP cell proliferation inhibition.

DC50 (Androgen receptor) [nM] | Dmax (Androgen receptor) [%] | IC50 (VCaP cells) [nM] | Structure (SMILES) | Emax (VCaP cells) [%]
32 | 109 | 45 | CC1(C)[C@H](NC(=O)c2cnc(N3CCC(CN4CCN(c5ccc6c(=O)n(C7CCC(=O)NC7=O)ncc6c5)CC4)CC3)c(F)c2)C(C)(C)[C@H]1Oc1ccc(C#N)c(Cl)c1 (some centres unmarked) [Compound 26] | 60
7.2 | 101 | 33 | CC1(C)[C@H](NC(=O)c2ccc(N3CCC(CN4CCN(c5ccc6c(=O)n([C@@H]7CCC(=O)NC7=O)ncc6c5)CC4)CC3)cc2)C(C)(C)[C@H]1Oc1ccc(C#N)c(Cl)c1 [Compound 28B] | 71
